According to patent US20230125585A1, “DOSING PROTOCOLS AND REGIMENS FOR AMINOSTEROL TREATMENT” (Enterin, Inc., priority 2019, published 2023):
Read-outs that look alike come from different tables or passages of the source.

Columns and labels:
α-synuclein protein = α-synuclein protein (Homo sapiens, UniProt P37840); details: cited from earlier work
[1] = intravenous administration; cited from earlier work
[2] = Phase 2a (n = 34), drug related adverse events; type: in vivo, human
[3] = Absorption / oral bioavailability of aminosterols; type: in vivo; details: oral administration
[4] = orally administered; mice with constipation due to overexpression of human αS; cited from earlier work
mouse stomach mRNA = assay: Oral dosing of squalamine (ENT-01) in old mice, stomach transcriptome by RNAseq; type: in vivo
Excerpt: The present example evaluated the impact of oral dosing of squalamine (ENT-01) on the gastrointestinal (GI) tissue of old mice (78 weeks). […] After 2 weeks of dosing the animals were euthanized, and the GI tracts sectioned into stomach, duodenum, jejunum, ileum, caecum, colon, and rectum. The stomach tissues were then sent for histology, and the transcriptomes analyzed by RNAseq.
The dosing schedule used to determine the effect of orally administered squalamine and MSI-1436 on the GI tracts of young and old mice was as follows. Male C57Bl/6 mice, aged 20 and 78 weeks, were obtained from Jackson labs. Animals were exposed to 12 hr light dark cycles and provided Teklad standard mouse diet and water ad lib.
Animals were dosed once daily by oral gavage in the morning for a total of 14 days. Animals were fasted 3-4 hours prior to dosing and 1 hour following. The test article was dissolved in 0.5% hydroxypropylcellulose in water. On day 15 the animals were euthanized by CO2 asphyxiation, necropsied, and tissues prepared for histology and RNAseq analysis.
The GI tracts of the animals were sectioned into stomach, duodenum, jejunum, ileum, caecum, colon, and rectum. The tissues were then sent for histology, and the transcriptomes analyzed by RNAseq.

[5] = human, in vivo, 25 days
[6] = Phase 2(b) study, aminosterol dosage and body position, Parkinson's disease patients
[7] = short term placebo controlled trial, PD constipation; cited from earlier work
[8] = 15 patients with assessable MMSE improvement

Which “initiation of aggregation of the α-synuclein protein” value (α-synuclein protein) does the source give for `CC(C)[C@@H](CC[C@@H](C)[C@H]1CC[C@H]2[C@@H]3[C@H](O)C[C@H]4C[C@@H](NCCCNCCCCNCCCN)CC[C@]4(C)[C@H]3CC[C@]12C)OS(=O)(=O)O` [aminosterol 1436] here?
The value was “inhibit the initiation of aggregation”.

For `CC(C)[C@@H](CC[C@@H](C)[C@H]1CC[C@H]2[C@@H]3[C@H](O)C[C@H]4C[C@@H](NCCCNCCCCN)CC[C@]4(C)[C@H]3CC[C@]12C)OS(=O)(=O)O` [squalamine], which gastrointestinal motility [1] is on record?
The gastrointestinal motility was “not associated with increased gastrointestinal motility”.

And the “Drug related adverse event Diarrhea, Mild, %” value [2]?
Its value is “(35) %”.

And the “Drug related adverse event Diarrhea, Moderate, %” value [2]?
The value was “(5.8) %”.

And the “Drug related adverse event Diarrhea, Severe, %” value [2]?
The value was “(2.9) %”.

What about the “Drug related adverse event Dizziness, Mild, %” value [2] of the same molecule?
The value was “(20.5) %”.

What about the “Drug related adverse event Dizziness, Moderate, %” value [2] of the same molecule?
The value was “(2.9) %”.

And the “Drug related adverse event Nausea, Mild, %” value [2]?
Its value is “(47) %”.

And the “Drug related adverse event Nausea, Moderate, %” value [2]?
Its value is “(2.9) %”.

What about the “Drug related adverse event Vomiting, Mild, %” value [2] of the same molecule?
The value was “(5.8) %”.

What about the absorption in blood [3] of the same molecule?
The absorption in blood was “less than 0.3%”.

What about the gastrointestinal motility [4] of the same molecule?
The gastrointestinal motility was “stimulates gastrointestinal motility”.

What about the “Corneodesmosin mRNA % increase” value (mouse stomach mRNA; old + Ent-01 vs old mice) of the same molecule?
Its value is 94%.

What about the “Cornifelin mRNA % increase” value (mouse stomach mRNA; old + Ent-01 vs old mice) of the same molecule?
Its value is 261%.

And the “Dermokine mRNA % increase” value (mouse stomach mRNA; old + Ent-01 vs old mice)?
Its value is 290%.

And the “Filaggrin mRNA % increase” value (mouse stomach mRNA; old + Ent-01 vs old mice)?
The value was 671%.

And the “H19_imprinted_maternally_expressed_transcript mRNA % increase” value (mouse stomach mRNA; old + Ent-01 vs old mice)?
Its value is 656%.

What about the “Hornerin mRNA % increase” value (mouse stomach mRNA; old + Ent-01 vs old mice) of the same molecule?
The value was 253%.

What about the “Loricrin mRNA % increase” value (mouse stomach mRNA; old + Ent-01 vs old mice) of the same molecule?
Its value is 381%.

What about the “Myoglobin mRNA % increase” value (mouse stomach mRNA; old + Ent-01 vs old mice) of the same molecule?
Its value is 437%.

And the “Sciellin mRNA % increase” value (mouse stomach mRNA; old + Ent-01 vs old mice)?
Its value is 219%.

What about the “caspase_14 mRNA % increase” value (mouse stomach mRNA; old + Ent-01 vs old mice) of the same molecule?
Its value is 664%.

And the “collagen_type_XVII_alpha_1 mRNA % increase” value (mouse stomach mRNA; old + Ent-01 vs old mice)?
The value was 256%.

What about the “cystatin_E/M mRNA % increase” value (mouse stomach mRNA; old + Ent-01 vs old mice) of the same molecule?
The value was 491%.

What about the “desmocollin_1 mRNA % increase” value (mouse stomach mRNA; old + Ent-01 vs old mice) of the same molecule?
The value was 104%.

What about the “desmoglein_1_beta mRNA % increase” value (mouse stomach mRNA; old + Ent-01 vs old mice) of the same molecule?
The value was 184%.

What about the “gap_junction_protein_beta_4 mRNA % increase” value (mouse stomach mRNA; old + Ent-01 vs old mice) of the same molecule?
Its value is 470%.

What about the “gap_junction_protein_beta_6 mRNA % increase” value (mouse stomach mRNA; old + Ent-01 vs old mice) of the same molecule?
The value was 455%.

And the “kallikrein_related-peptidase_7_(chymotryptic_stratum mRNA % increase)” value (mouse stomach mRNA; old + Ent-01 vs old mice)?
The value was 847%.

And the “keratin_1 mRNA % increase” value (mouse stomach mRNA; old + Ent-01 vs old mice)?
The value was 425%.

What about the “keratin_10 mRNA % increase” value (mouse stomach mRNA; old + Ent-01 vs old mice) of the same molecule?
The value was 610%.

And the “keratinocyte_differentiation_associated_protein mRNA % increase” value (mouse stomach mRNA; old + Ent-01 vs old mice)?
The value was 407%.

And the “keratinocyte_expressed_proline-rich mRNA % increase” value (mouse stomach mRNA; old + Ent-01 vs old mice)?
The value was 270%.

What about the “late_cornified_envelope_1A1 mRNA % increase” value (mouse stomach mRNA; old + Ent-01 vs old mice) of the same molecule?
The value was 339%.

And the “late_cornified_envelope_1A2 mRNA % increase” value (mouse stomach mRNA; old + Ent-01 vs old mice)?
Its value is 361%.

And the “late_cornified_envelope_1B mRNA % increase” value (mouse stomach mRNA; old + Ent-01 vs old mice)?
Its value is 471%.

And the “late_cornified_envelope_1C mRNA % increase” value (mouse stomach mRNA; old + Ent-01 vs old mice)?
The value was 338%.

And the “late_cornified_envelope_1E mRNA % increase” value (mouse stomach mRNA; old + Ent-01 vs old mice)?
Its value is 340%.

And the “late_cornified_envelope_1F mRNA % increase” value (mouse stomach mRNA; old + Ent-01 vs old mice)?
The value was 338%.

And the “late_cornified_envelope_1G mRNA % increase” value (mouse stomach mRNA; old + Ent-01 vs old mice)?
The value was 197%.

And the “late_cornified_envelope_1H mRNA % increase” value (mouse stomach mRNA; old + Ent-01 vs old mice)?
Its value is 233%.

What about the “late_cornified_envelope_1I mRNA % increase” value (mouse stomach mRNA; old + Ent-01 vs old mice) of the same molecule?
The value was 654%.

What about the “late_cornified_envelope_1J mRNA % increase” value (mouse stomach mRNA; old + Ent-01 vs old mice) of the same molecule?
The value was 296%.

What about the “late_cornified_envelope_1L mRNA % increase” value (mouse stomach mRNA; old + Ent-01 vs old mice) of the same molecule?
Its value is 365%.

And the “late_cornified_envelope_1M mRNA % increase” value (mouse stomach mRNA; old + Ent-01 vs old mice)?
The value was 656%.

What about the “late_cornified_envelope_3C mRNA % increase” value (mouse stomach mRNA; old + Ent-01 vs old mice) of the same molecule?
Its value is 130%.

What about the “late_cornified_envelope_3E mRNA % increase” value (mouse stomach mRNA; old + Ent-01 vs old mice) of the same molecule?
Its value is 205%.

What about the “late_cornified_envelope_3F mRNA % increase” value (mouse stomach mRNA; old + Ent-01 vs old mice) of the same molecule?
Its value is 192%.

And the “lectin_galactose_binding_soluble_7 mRNA % increase” value (mouse stomach mRNA; old + Ent-01 vs old mice)?
The value was 481%.

And the “myosin_binding_protein_C_slow-type mRNA % increase” value (mouse stomach mRNA; old + Ent-01 vs old mice)?
The value was 209%.

What about the “myosin_heavy_polypeptide_1_skeletal_muscle mRNA % increase” value (mouse stomach mRNA; old + Ent-01 vs old mice) of the same molecule?
The value was 289%.

And the “myosin_heavy_polypeptide_8_skeletal_muscle mRNA % increase” value (mouse stomach mRNA; old + Ent-01 vs old mice)?
Its value is 371%.

What about the “myosin_light_chain_phosphorylatable_fast_skeletal mRNA % increase” value (mouse stomach mRNA; old + Ent-01 vs old mice) of the same molecule?
Its value is 295%.

And the “myosin_light_polypeptide_3 mRNA % increase” value (mouse stomach mRNA; old + Ent-01 vs old mice)?
Its value is 747%.

What about the “myozenin_1 mRNA % increase” value (mouse stomach mRNA; old + Ent-01 vs old mice) of the same molecule?
Its value is 524%.

And the “myozenin_2 mRNA % increase” value (mouse stomach mRNA; old + Ent-01 vs old mice)?
The value was 341%.

What about the “titin-cap mRNA % increase” value (mouse stomach mRNA; old + Ent-01 vs old mice) of the same molecule?
The value was 298%.

What about the “mRNA levels for all of the genes in Table 4” value (mouse stomach mRNA; old mice after treatment with squalamine) of the same molecule?
Its value is “significant increase”.

And the “initiation of aggregation of the α-synuclein protein” value (α-synuclein protein)?
The value was “inhibit the initiation of aggregation”.

And the “Drug related adverse event Diarrhea, Mild, %” value [5]?
The value was “(2.7) %”.

What about the “Drug related adverse event Diarrhea, Moderate, %” value [5] of the same molecule?
Its value is “(2.7) %”.

What about the “Drug related adverse event Diarrhea, Severe, %” value [5] of the same molecule?
The value was “(2.7) %”.

And the “Drug related adverse event Dizziness, Mild, %” value [5]?
Its value is “(3) %”.

What about the “Drug related adverse event Nausea, Mild, %” value [5] of the same molecule?
Its value is “(6.3) %”.

What about the “Drug related adverse event Nausea, Moderate, %” value [5] of the same molecule?
The value was “(2.7) %”.

What about the “Drug related adverse event Vomiting, Mild, %” value [5] of the same molecule?
The value was “(2.7) %”.

What about the “Drug related adverse event Vomiting, Moderate, %” value [5] of the same molecule?
Its value is “(2.7) %”.

What about the “Unrelated adverse event Contusion*, Mild, %” value [5] of the same molecule?
The value was “(2.1) %”.

And the “Unrelated adverse event Dizziness, Mild, %” value [5]?
Its value is “(4.2) %”.

What about the “Unrelated adverse event Fall*, Mild, %” value [5] of the same molecule?
The value was “(4.2) %”.

And the “Unrelated adverse event Fall*, Moderate, %” value [5]?
Its value is “(2.1) %”.

And the “Unrelated adverse event Pain*, Mild, %” value [5]?
Its value is “(2.1) %”.

What about the “Unrelated adverse event Pain*, Moderate, %” value [5] of the same molecule?
Its value is “(2.1) %”.

What about the “Unrelated adverse event Phlebotomy site irritation*, Mild, %” value [5] of the same molecule?
Its value is “(2.1) %”.

And the “Unrelated adverse event Rectal burning, Mild, %” value [5]?
Its value is “(2.1) %”.

And the “Unrelated adverse event Rib fracture*, Mild, %” value [5]?
Its value is “(2.1) %”.

And the “Unrelated adverse event Squamous cell Ca*, Mild, %” value [5]?
Its value is “(2.1) %”.

And the “Unrelated adverse event Syncope*, Moderate, %” value [5]?
Its value is “(2.1) %”.

And the “patients with MMSE improvement of 3 or more points” value [6, 8]?
Its value is 33%.

And the “patients with MMSE improvement of 4 or more points” value [6, 8]?
Its value is 20%.

What about the “patients with MMSE improvement of 5 or more points” value [6, 8] of the same molecule?
The value was 13%.

What about the “patients with MMSE improvement of 6 or more points” value [6, 8] of the same molecule?
The value was 1/15.

What about the “patients responding to drug treatment (increase in CSBM)” value ([6]; 29 patients with assessable bowel movements, 75 or 150 mg/daily, 25 days) of the same molecule?
Its value is “About 80%”.

And the hallucinations ([6]; Phase 2(b), PD patients)?
The hallucinations was “reduction in hallucinations”.

And the sleep fragmentation ([6]; Phase 2(b), PD patients)?
The sleep fragmentation was “decrease in sleep fragmentation”.

What about the total sleep time ([6]; Phase 2(b), PD patients) of the same molecule?
The total sleep time was “increase in total sleep time”.

What about the “bowel function, MMSE scores, amount and quality of sleep, other neurological indices (UPDRS)” value ([6]; dose taken sitting or standing, compared to lying down) of the same molecule?
Its value is “qualitative improvements”.

What about the “Unrelated adverse event Flu-like symptoms*, Mild, %” value ([6]; n = 47) of the same molecule?
Its value is “(6.3) %”.

For `CCCCC(F)(F)[C@@]1(O)CC[C@H]2[C@@H](CC(=O)[C@@H]2CCCCCCC(=O)O)O1` [Lubiprostone], which “share of treated in whom effective” value [7] is on record?
Its value is “about 50%”.
